The supplement of paper PMC11451515

Key:
SEM cells [1] = assay: cell viability relative to DMSO control; higher = less cytotoxic; settings: 48 h
Method in brief: (§1)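 In 1536-well plates, 5 μl of leukemia cells were seeded per well: 500 cells/well for NOMO1 or SEM and 1000 cells/well for P12-Ichikawa. Each line had first been adapted for at least four passages in each medium. Library compounds in DMSO were pin-dosed at 11 threefold concentrations between 47 μM and 0.79 nM, and CellTiter-Glo One luminescence was read after 48 h at 37°C. Viability is a per-plate percentage relative to DMSO wells, with cell-free wells as background.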

NOMO1 = assay: AUC of viability dose-response curve (% viability x log10 dose units); higher = less sensitive; settings: 48 h
Method in brief: (§2)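 Leukemia cells adapted to each medium (500 or 1000 cells/well, 1536-well plates) were exposed to library compounds in DMSO for 48 h at 37°C at 11 threefold doses, 47 μM to 0.79 nM. Luminescence by CellTiter-Glo One was normalised per plate to DMSO and cell-free wells, then fitted with a four-parameter log-logistic curve on log10 dose. Curves above full viability were scaled and quality-control failures removed before area under the curve was integrated by trapezoidal rule.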

P12-Ichikawa [2] = assay: as above; settings: 48 h
Method in brief: as §2

SEM cells [3] = assay: as above; settings: 48 h
Method in brief: as §2

P12-Ichikawa [4] = assay: cell viability relative to DMSO control; higher = less cytotoxic; settings: HPLM + 10% dialyzed FBS, 48 h
Method in brief: as §1

[5] = HPLM + 10% dialyzed FBS, 0.000781 µM
[6] = HPLM + 10% dialyzed FBS, 0.00234 µM
[7] = HPLM + 10% dialyzed FBS, 0.00702 µM
[8] = HPLM + 10% dialyzed FBS, 0.0211 µM
[9] = HPLM + 10% dialyzed FBS, 0.0632 µM
[10] = HPLM + 10% dialyzed FBS, 0.19 µM
[11] = HPLM + 10% dialyzed FBS, 0.569 µM
[12] = HPLM + 10% dialyzed FBS, 1.71 µM
[13] = HPLM + 10% dialyzed FBS, 5.12 µM
[14] = HPLM + 10% dialyzed FBS, 15.4 µM
[15] = HPLM + 10% dialyzed FBS, 46.1 µM
[16] = RPMI 5 mM glucose + 10% dialyzed FBS

Row | SMILES | cell viability (SEM cells [1]; [5]) | cell viability (SEM cells [1]; [6]) | cell viability (SEM cells [1]; [7]) | cell viability (SEM cells [1]; [8]) | cell viability (SEM cells [1]; [9]) | cell viability (SEM cells [1]; [10]) | cell viability (SEM cells [1]; [11]) | cell viability (SEM cells [1]; [12]) | cell viability (SEM cells [1]; [13]) | cell viability (SEM cells [1]; [14]) | cell viability (SEM cells [1]; [15]) | AUC of viability dose-response curve (NOMO1; HPLM + 10% dialyzed FBS) | AUC of viability dose-response curve (NOMO1; RPMI 5 mM glucose + 10% FBS) | AUC of viability dose-response curve (NOMO1; [16]) | AUC of viability dose-response curve (P12-Ichikawa [2]; HPLM + 10% dialyzed FBS) | AUC of viability dose-response curve (P12-Ichikawa [2]; RPMI 5 mM glucose + 10% FBS) | AUC of viability dose-response curve (P12-Ichikawa [2]; [16]) | AUC of viability dose-response curve (SEM cells [3]; HPLM + 10% dialyzed FBS) | AUC of viability dose-response curve (SEM cells [3]; RPMI 5 mM glucose + 10% FBS) | AUC of viability dose-response curve (SEM cells [3]; [16]) | other results
1 | NC(=O)c1cccc(-c2cccc(OC(=O)NC3CCCCC3)c2)c1 | 110% | 125% | 128% | 133% | 124% | 38.4% | 128% | 96.5% | 94.7% | 104% | 96.9% | 461 | 473 | 472 | 413 | 402 | 380 | 421 | 357 | 376 | cell viability (SEM cells [1]; RPMI 5 mM glucose + 10% FBS, 0.000781 µM): 116%; cell viability (SEM cells [1]; RPMI 5 mM glucose + 10% FBS, 0.00234 µM): 119%; cell viability (SEM cells [1]; RPMI 5 mM glucose + 10% FBS, 0.00702 µM): 120%; cell viability (SEM cells [1]; RPMI 5 mM glucose + 10% FBS, 0.0211 µM): 120%; cell viability (SEM cells [1]; RPMI 5 mM glucose + 10% FBS, 0.0632 µM): 119%; cell viability (SEM cells [1]; RPMI 5 mM glucose + 10% FBS, 0.19 µM): 33%; cell viability (SEM cells [1]; RPMI 5 mM glucose + 10% FBS, 0.569 µM): 110%; cell viability (SEM cells [1]; RPMI 5 mM glucose + 10% FBS, 1.71 µM): 78.1%; cell viability (SEM cells [1]; RPMI 5 mM glucose + 10% FBS, 5.12 µM): 62.2%; cell viability (SEM cells [1]; RPMI 5 mM glucose + 10% FBS, 15.4 µM): 78%; cell viability (SEM cells [1]; RPMI 5 mM glucose + 10% FBS, 46.1 µM): 71.5%
2 | CNC(=O)c1ccc(Nc2ncc(C(F)(F)F)c(NCc3nccnc3N(C)[S+](C)(=O)[O-])n2)cc1 | 115% | 105% | 124% | 127% | 125% | 113% | 99.8% | 63.2% | 23.5% | 16.7% | 20.9% | 446 | 412 | 443 | 457 | 447 | 438 | 348 | 317 | 314 | cell viability (P12-Ichikawa [4]; 0.000781 µM): 120%; cell viability (P12-Ichikawa [4]; 0.00234 µM): 127%; cell viability (P12-Ichikawa [4]; 0.00702 µM): 117%; cell viability (P12-Ichikawa [4]; 0.0211 µM): 118%; cell viability (P12-Ichikawa [4]; 0.0632 µM): 124%; cell viability (P12-Ichikawa [4]; 0.19 µM): 114%; cell viability (P12-Ichikawa [4]; 0.569 µM): 122%; cell viability (P12-Ichikawa [4]; 1.71 µM): 125%; cell viability (P12-Ichikawa [4]; 5.12 µM): 109%; cell viability (P12-Ichikawa [4]; 15.4 µM): 89.4%; cell viability (P12-Ichikawa [4]; 46.1 µM): 102%
3 | O=c1cc(O)c(Cl)c[nH]1 |  |  |  |  |  |  |  |  |  |  |  | 378 | 396 | 394 | 391 | 395 | 417 | 455 | 416 | 453 | 
4 | COC(=O)C1=C(C)NC(C)=C(C(=O)OCCN2CCN(C(c3ccccc3)c3ccccc3)CC2)C1c1cccc([N+](=O)[O-])c1.Cl.Cl (stereo not given) |  |  |  |  |  |  |  |  |  |  |  | 472 | 464 | 445 | 447 | 464 | 442 | 463 | 421 | 453 | 
